The values below come from patent US10160732B2, “MIF inhibitors” (MIFCARE, priority 2014, dated 2018).

For the test, the target named is T1, recombinant human MIF (Homo sapiens, UniProt P14174).
T1 construct: purchased RayBiotech
T1 sequence (P14174 2-115 limits assumed): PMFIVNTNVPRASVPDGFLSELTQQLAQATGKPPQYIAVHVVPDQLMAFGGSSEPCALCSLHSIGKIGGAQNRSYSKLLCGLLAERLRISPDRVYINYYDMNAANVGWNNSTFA
Briefly: MIF tautomerase assay using 4-hydroxyphenylpyruvate (4-HPP). The format is biochemical. To be noted: compounds tested at 1 nM; 300 ng/mL rhMIF; 4-HPP substrate; compared to positive control with recombinant human MIF alone. The protocol: Tautomerase activity was assessed using 4-hydroxyphenylpyruvate (4-HPP) as substrate. 4-HPP was dissolved in 50 mM ammonium acetate at pH 6.0, allowed to equilibrate to room temperature and stored at −20° C. 300 ng/mL of recombinant human MIF (rhMIF; RayBiotech, Le Perray en Yvelines, France) and tested compounds were pre-incubated at room temperature for 15 min. Tautomerase activity was assessed at room temperature, by adding 4-HHP to a 96-well plate containing 0.435 M boric acid at pH 6.6 and rhMIF with or without (positive control) tested compounds (1 nM), and by measuring the increase in absorbance at 320 nm over 10-360 s using the 2103 EnVision™ Multilabel Plate Readers (PerkinElmer, Villebon-sur-Yvette, France). Compounds were tested at 1 nM. The assay was replicated 3 times independently.
Compounds 38, 39 and 41 of the present invention were tested and compared to their respective “C═O” isosteres 38-O, 39-O and 41-O. Results are also compared to prototypical MIF inhibitor ISO-1.
Results are presented in table 2 below and represent the percentage of MIF tautomerase activity inhibition as compared to the positive control with recombinant human MIF alone.

Molecules are shown by their SMILES.

What is called inhibition is the drop in the measured response relative to a control, in per cent. On to `COc1ccccc1Cn1c(=O)oc2ccc(C)cc21` [Compound 41-O], for which the inhibition at 0.001 µM turned out to be 31%.
The same measure for `Cc1ccc2oc(=O)n(Cc3ccccc3)c2c1` [Compound 39-O]: 12%.
